The values below come from patent US7973039B2, “Sulfonyl amino cyclic derivatives and use thereof” (Merck Serono SA, priority 2004, dated 2011).

For one assay, the target named is T1, collagenase (MMP-1) (Homo sapiens, UniProt P03956).
T1 sequence (P03956 100-469): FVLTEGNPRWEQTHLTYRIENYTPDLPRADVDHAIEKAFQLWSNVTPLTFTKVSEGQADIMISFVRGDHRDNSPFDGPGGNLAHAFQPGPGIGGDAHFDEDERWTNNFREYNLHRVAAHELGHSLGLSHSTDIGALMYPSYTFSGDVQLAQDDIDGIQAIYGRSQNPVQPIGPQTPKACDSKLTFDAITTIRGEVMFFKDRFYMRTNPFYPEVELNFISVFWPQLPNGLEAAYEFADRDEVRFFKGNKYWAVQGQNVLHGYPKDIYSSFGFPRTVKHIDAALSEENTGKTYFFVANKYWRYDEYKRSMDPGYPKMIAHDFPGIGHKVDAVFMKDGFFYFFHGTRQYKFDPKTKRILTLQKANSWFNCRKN
The assay is described as follows: MMP-1 enzyme inhibition assay (coumarin-labelled peptide substrate McaPLGLDpaAR). The format is biochemical. Conditions: fluorogenic substrate McaPLGLDpaAR, 37° C., 2 hours. The procedure:
(§1) Compounds of the invention were tested to assess their activities as inhibitors of MMP-1, MMP-2, MMP-9 and MMP-12.
(§2) Stock solutions were made up as follows: Assay Butter: 100 mM Tris-HCl pH 7.6 containing 100 mM NaCl, 10 mM CaCl2, and 0.05% Brij 35.
Substrate: 0.4 mM McaPLGLDpaAR (from Bachem) (0.437 mg/ml) stock solution in 100% DMSO (stored at −20° C.). Dilute to 8 μM in assay butter.
Enzyme: Recombinant human 92 kDa gelatinase (MMP-9; APMA (4-aminophenyl mercuric acetate)—activated if necessary) appropriately diluted in assay butter.
(§3) Test Compounds were prepared initially as 10 mM compound solution in 100% DMSO, diluted to 1 mM in 100% DMSO, then serially diluted 3-fold in 100% DMSO across columns 1-10 of a 96-well microtitre plate Assay concentration range, 100 μM (column 1) to 5.1 nM (column 10).
(§4) The assay was performed in a total volume of 100 μL per well in 96-well microtitre plates. Activated enzyme (20 μL) was added to the wells followed by 20 μL of assay butter. Appropriate concentrations of test compounds dissolved in 10 μL of DMSO were then added followed by 50 μL of McaPLGLDpaAR (8 μM, prepared by dilution of DMSO stock in assay butter). For each as say ten concentrations of test compound were examined in duplicate. Control wells lack either enzyme or test compound. The reactions were incubated at 37° C. for 2 hours. The fluorescence at 405 nm was measured immediately with an SLT Fluostar fluorometer (SL T Labinstruments GmbH, Grödig, Austria) using 320 nm excitation, without stopping the reaction.
(§5) The effect of the test compound was determined from the dose response curve generated by the 10 duplicate concentrations of inhibitor. The IC50 (the concentration of compound required to give a 50% decrease in enzyme activity) was obtained by fitting data to the equation, Y=a+((b−a)/(1+(c/X)^d)). (Y=inhibition achieved for a particular dose; X=the dose in nM; a=minimum y or zero % inhibition; b=maximum y or 100% inhibition; c=is the IC50; d=is the slope). The result was rounded to one significant figure.
Compounds of the invention were tested for inhibitory activity against collagenase (MMP-1) in an assay using a coumarin-labelled peptide substrate, (7-methoxycoumarin-4-yl)acetyl-Pro-Leu-Gly-Leu-(3-[2,4-dinitrophenyl]-L-2,3diaminopropionyl)-Ala-Arg-NH2 (McaPLGLDpaAR) (Knight et al, 1992, above). The protocol for this assay was as described for the MMP-9 assay above.

Another assay addresses metalloelastase (MMP-12) (Homo sapiens, UniProt P39900). As to the kind of experiment: MMP-12 enzyme inhibition assay (coumarin-labelled peptide substrate McaPLGLDpaAR). The format is biochemical. Conditions: fluorogenic substrate McaPLGLDpaAR, 37° C., 2 hours. How it is done: as §1, §2
Substrate: 0.4 mM McaPLGLDpaAR (from Bachem) (0.437 mg/ml) stock solution in 100% DMSO (stored at −20° C.). Dilute to 8 μM in assay butter. […]
as §3, §4, §5
Compounds of the invention were tested for inhibitory activity against metalloelastase (MMP-12) in an assay using a coumarin-labelled peptide substrate, (7-methoxycoumarin-4-yl)acetyl-Pro-Leu-Gly-Leu-(3-[2,4dinitrophenyl]-L-2,3-diaminopropionyl)-Ala-Arg-NH2 (McaPLGLDpaAR) (Knight et al, 1992, above). The protocol for this assay was as described for the MMP-9 assay above.

Assay [1] deals with IL-2-induced peritoneal recruitment of lymphocytes. The assay is described as follows: IL-2-induced peritoneal recruitment of lymphocytes. The format is in vivo, C3H/HEN mice. The settings on record: Mus musculus, Lymphocyte; mice, route po, given 15 min prior to IL-2 (20 μg/kg i.p.), lymphocytes counted 24 h after IL-2; read-out: ED50 in IL-2-induced peritoneal recruitment of lymphocytes model. The procedure: Administration of IL-2 intraperitoneally causes migration of lymphocytes into the intraperitoneal cavity. This is a model for the cellular migration that occurs during inflammation.
C3H/HEN mice (Elevage Janvier, France) were intraperitoneally injected with IL-2 (Serono Pharmaceutical Research Institute, 20 μg/kg, in saline).
Compounds of the invention were suspended in 0.5% carboxymethylcellulose (CMC)/0.25% tween-20 and were administered by s.c. or p.o. route (10 ml/kg) 15 min prior to administration of IL-2.
Twenty-four hours after administration of IL-2, peritoneal white blood cells were collected by 3 successive lavages of the peritoneal cavity with 5 ml phosphate buffered saline (PBS)-1 mM EDTA (+4° C.). The suspension was centrifuged (1700 g×10 min at +4° C.). The resulting pellet was suspended in 1 ml PBS-1 mM EDTA.
Lymphocytes were identified and counted using a Beckman/Coulter counter.
The animals were divided into 6 groups (6 mice each group):
Group 1: (baseline) received 0.5% CMC/0.25% tween-20 (vehicle of compound of the invention) and saline (vehicle of IL-2);
Group 2: (control IL-2) received 0.5% CMC/0.25% tween-20 and injection of IL-2;
Group 3: Experimental group (Compound of the invention Dose 1) received a compound of the invention and injection of IL-2; […]
Inhibition of lymphocyte recruitment was calculated as follows: […]

Molecules are shown by their SMILES.

Chain of metalloelastase (MMP-12) (P39900 106-470): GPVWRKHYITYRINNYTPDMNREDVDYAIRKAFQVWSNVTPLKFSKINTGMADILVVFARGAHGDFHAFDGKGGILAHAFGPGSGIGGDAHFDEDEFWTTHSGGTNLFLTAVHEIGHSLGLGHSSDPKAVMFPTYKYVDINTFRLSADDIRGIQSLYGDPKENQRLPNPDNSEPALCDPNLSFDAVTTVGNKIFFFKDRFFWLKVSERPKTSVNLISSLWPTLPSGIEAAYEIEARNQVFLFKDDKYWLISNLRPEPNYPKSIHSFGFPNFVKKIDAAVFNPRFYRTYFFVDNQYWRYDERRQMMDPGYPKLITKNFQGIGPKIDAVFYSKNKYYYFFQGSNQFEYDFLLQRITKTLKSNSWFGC

The term IC50 denotes the concentration needed to halve the response being measured. As to `CCCCCC#CC(CS(=O)(=O)N1CCCN(c2ccc(OCC)cc2)CC1)N(O)C=O` (centres unmarked) [Example 61, [1-({[4-(4-ethyloxyphenyl)-1,4-diazepan-1-yl]sulfonyl}methyl)oct-2-yn-1-yl]hydroxyformamide], the concentration for half-maximal inhibition (IC50) against collagenase (MMP-1) is over 5000 nM; at metalloelastase (MMP-12), 24 nM.
By ED50 is commonly meant the dose that gives a 50% effect, or the effect in half of the subjects. With `O=CN(O)C(C#Cc1ccc2c(c1)OCO2)CS(=O)(=O)N1CCN(c2ccc(F)cc2)CC1` (centres unmarked) [Example 1, 3-(1,3-benzodioxol-5-yl)-1 ({[4-(4-fluorophenyl)-1-piperazinyl]sulfonyl}methyl)-2-propynyl(hydroxy)formamide], the IC50 at collagenase (MMP-1) is over 5000 nM; at metalloelastase (MMP-12), 46 nM. For the same molecule, the median effective dose (ED50) in assay [1] was 0.8 mg/kg.
As to `O=CN(O)C(C#Cc1ccc(-c2ncon2)cc1)CS(=O)(=O)N1CCN(c2ccc(F)cc2)CC1` (centres unmarked) [Example 27, {1-({[4-(4-fluorophenyl)piperazin-1-yl]sulfonyl}methyl)-3-[4-(1,2,4-oxadiazol-3-yl)phenyl]prop-2-yn-1-yl}hydroxyformamide], the values for the IC50 against collagenase (MMP-1) and against metalloelastase (MMP-12) were over 5000 nM and 95 nM, respectively.
Taken in the same sequence, the figures for `O=CN(O)C(C#Cc1ccccc1)CS(=O)(=O)N1CCN(c2ccc(F)cc2)CC1` (centres unmarked) [Example 4, 1-({[4-(4-fluorophenyl)-1-piperazinyl]sulfonyl}methyl)-3-phenyl-2-propynyl(hydroxy)formamide] were over 5000 nM and 58 nM.
Taken in the same sequence, the figures for `CCN(CC)CC#CC(CS(=O)(=O)N1CCC(c2ccc(OC)cc2)CC1)N(O)C=O` (centres unmarked) [Example 37, [4-(diethylamino)-1-({[4-(4-methyloxyphenyl)piperidin-1-yl]sulfonyl}methyl)but-2-yn-1-yl]hydroxyformamide] were over 5000 nM and 6 nM.
Taken in the same sequence, the figures for `O=CN(O)C(C#CCc1ccccc1)CS(=O)(=O)N1CCN(c2ccc(F)cc2)CC1` (centres unmarked) [Example 6, 1-({[4-(4-fluorophenyl)-1-piperazinyl]sulfonyl}methyl)-4-phenyl-2-butynyl (hydroxy)formamide] were over 5000 nM and 21 nM.
Regarding `CCCCCC#CC(CS(=O)(=O)N1CCC(c2ccc(OC)cc2)CC1)N(O)C=O` (centres unmarked) [Example 19], the IC50 is over 5000 nM against collagenase (MMP-1) and 18 nM at metalloelastase (MMP-12).
For `COc1ccc(N2CCN(S(=O)(=O)CC(C#Cc3cccc(OC)c3)N(O)C=O)CC2)cc1` (centres unmarked) [Example 10, hydroxy[3-(3-methoxyphenyl)-1-({[4-(4-methoxyphenyl)-1-piperazinyl]sulfonyl}methyl)-2-propynyl]formamide], the IC50 against collagenase (MMP-1) was over 5000 nM; at metalloelastase (MMP-12), 33 nM.
With `O=CN(O)C(C#CCN1CCCC1)CS(=O)(=O)N1CCN(c2ccc(F)cc2)CC1` (centres unmarked) [Example 64, [1-({[4-(4-fluorophenyl)piperazin-1-yl]sulfonyl}methyl)-4-pyrrolidin-1-ylbut-2-yn-1-yl]hydroxyformamide], the results for the IC50 against collagenase (MMP-1) and against metalloelastase (MMP-12) were over 5000 nM and 40 nM, respectively.
Regarding `CC(C)(CC#Cc1ccccc1)C(CS(=O)(=O)N1CCN(c2ccc(F)cc2)CC1)N(O)C=O` (centres unmarked) [Example 36, [1-({[4-(4-fluorophenyl)piperazin-1-yl]sulfonyl}methyl)-2,2-dimethyl-5-phenylpent-4-yn-1-yl]hydroxyformamide], the figures for the concentration for half-maximal inhibition (IC50) against collagenase (MMP-1) and against metalloelastase (MMP-12) were over 5000 nM and 20 nM, respectively.
With `CCCCCC#CC(CS(=O)(=O)N1CCN(c2ccc(F)cc2)CC1)N(O)C=O` (centres unmarked) [Example 7, 1-({[4-(4-fluorophenyl)-1-piperazinyl]sulfonyl}methyl)-2-octynyl(hydroxy)formamide], the IC50 is over 5000 nM against collagenase (MMP-1) and 20 nM against metalloelastase (MMP-12). Also, in assay [1], the ED50 was determined as 2 mg/kg.
For the molecule `COc1ccc(N2CCN(S(=O)(=O)CC(C#Cc3cccnc3)N(O)C=O)CC2)cc1` (centres unmarked) [Example 9, hydroxy[1-({[4-(4-methoxyphenyl)-1-piperazinyl]sulfonyl}methyl)-3-(3-pyridinyl)-2-propynyl]formamide], the values for the IC50 against collagenase (MMP-1) and on metalloelastase (MMP-12) were over 5000 nM and 48 nM, respectively.
